In test [1] the test system is angiotensin II receptor. The test can be described thus: Adrenal Glomerulosa Test System: I125-angiotensin II binding to adrenal membranes. The conditions noted are these: percent inhibition of I125 angiotensin binding at 10^-5 M of antagonist; rat adrenal membranes; 0.1 nM I125-angiotensin II.
Description: The ability for compounds of Formula I to block angiotensin II receptor binding was determined using the adrenal glomerulosa assay.
Binding of I^125 -angiotensin II to adrenal membranes was routinely carried out in 96-well filtration plates. Adrenal membranes were prepared from the capsular portion (glomerulosal layer attached) of rat adrenal glands by differential centrifugation. Briefly, capsules were homogenized in a solution containing sucrose, 250 mM; MgCl2, 1 mM; and tris, 5 mM at pH 7.5 and 4° C. using a polytron at setting 5 for 20 seconds. The homogenate was stirred, gently, for 15 minutes at 4° C. and then centrifuged 10 minutes, at 1000×g, 4° C. The supernatant was centrifuged 30 minutes, at 30,000 ×g, 4° C. and the resulting pellet resuspended in 50 mM tris. Membrane preparations were stored in aliquots at -70° C. until used. Binding of I^125 -angiotensin II to adrenal membranes was performed at room temperature for 90 minutes in 96-well plates containing a hydrophilic polyvinylidene fluoride membrane (0.45 μm, millipore-GV multiscreen). Each 250 μl incubate contained the following (final concentration): tris, 50 mM; NaCl, 120 mM; MgCl2, 5 mM; dithiothrietol 1 mM; bovine serum albumin, 0.05%; I^125 -angiotensin II, 0.1 nM; and adrenal membrane protein, 8-15 μg. Antagonists were added in concentrations from 10 nM to 100 μM. Non-specific binding was measured in the presence of 0.1 μM Sar1, Ile8 angiotensin II. Binding was terminated by vacuum filtration. Receptor-ligand complex trapped on filters was washed 3 times with 300 μl ice-cold wash solution (tris, 50 mM; NaCl, 120 mM; MgCl2, 5 mM; dithiothrietol, 1 mM). Filter discs were dried, punched out and counted in a gamma counter at 52% efficiency. Specific binding represented 96% of total binding (approximately 150 fmol angiotensin II/mg protein). Data are expressed as the percent inhibition of I^125 angiotensin binding at 10^-5 M of antagonist.
The target of test [2] is T1, angiotensin-induced vasoconstriction (rabbit aorta) (Oryctolagus cuniculus, UniProt P34976).
T1 construct: the thoracic aortas were removed and cleaned of excess fat and connective tissue; from tissue; host or cells: thoracic aorta rings of New Zealand white rabbits
T1 sequence (P34976 1-359): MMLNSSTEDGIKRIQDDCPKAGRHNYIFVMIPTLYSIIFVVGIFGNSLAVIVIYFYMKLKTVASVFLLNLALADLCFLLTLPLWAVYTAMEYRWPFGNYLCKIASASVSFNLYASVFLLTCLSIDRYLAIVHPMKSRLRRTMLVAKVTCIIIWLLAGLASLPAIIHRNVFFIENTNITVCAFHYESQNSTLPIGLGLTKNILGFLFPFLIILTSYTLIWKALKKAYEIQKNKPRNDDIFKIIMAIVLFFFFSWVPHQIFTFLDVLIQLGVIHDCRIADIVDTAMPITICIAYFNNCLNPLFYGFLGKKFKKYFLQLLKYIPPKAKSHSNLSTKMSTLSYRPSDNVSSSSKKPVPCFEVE
The test can be described thus: Rabbit Aorta Test System: antagonism of angiotensin II-induced contraction of aortic rings. Format: cell-based, New Zealand white rabbits. The conditions noted are these: pA2 = -log KB; KB = [molar concentration of antagonist]/[(EC50 AII with antagonist/EC50 AII without antagonist)-1]; 30 min incubation; AII 10^-10 to 10^-7 M; read-out: Rabbit Aorta (pA2) (converted).
Description: The ability to antagonize angiotensin-induced vasoconstriction was evaluated in the rabbit aorta test system.
New Zealand white rabbits (Hazelton, 2-3 kg) were sacrificed by cervical dislocation and the thoracic aortas were removed and cleaned of excess fat and connective tissue. Rings of tissue (3 mm wide) were mounted in 10 ml tissue baths between 2 L-shaped stainless steel hooks. The lower hook was attached to a stationary rod and the upper hook to a force displacement transducer (Grass model FT.03). The bath chambers were maintained at 37° C., aerated with 95% O2 /5% CO2, and contained physiological solution of the following composition (mM): NaCl, 117; glucose, 5.6; NaH2 PO4, 1.0; MgSO4, 0.7; KCl, 5.2; CaCl2, 1.8; NaHCO3, 26; and phentolamine HCl, 0.003.
Rings were equilibrated for 1 hour with 2 g of tension. During the equilibration period, the tissues were washed by overflow every 15 minutes. Rings were then exposed to 10^-8 M angiotensin II (AII) and were allowed to contract until a steady state was reached. Tissues were then washed every 15 minutes for 1 hour. This was repeated every hour until the AII response stabilized. A cumulative concentration-response curve to AII (10^-10 to 10^-7 M) was then obtained. At the conclusion of the concentration-response curve, tissues were washed every 2 minutes until baseline tension was reached, then every 15 minutes for 30 minutes. Compounds were added in a volume of 10 μl DMSO and allowed to incubate for 30 minutes before repeating the concentration-response curve to AII. Contractions to AII were expressed as a percent of the maximum contraction obtained in the control curve (the first AII concentration-response curve). EC50 's (concentration that contracted the tissues to 1/2 the control maximum) for each curve were calculated using a 4 parameter logistics model (NonLin, SAS institute).

Structures are written as SMILES.

With `CCCCC(C(=O)O)n1cnc(C(=O)Nc2ccccc2O)c1.Cl` (stereo not drawn) [Example 89, α-Butyl-4-{[(2-hydroxyphenyl)amino]-carbonyl}-1H-imidazole-1-acetic acid hydrochloride], the “Adrenal Glomerulosa (% Inhibition of Binding)” value in test [1] turned out to be 54%. Besides, the Kb in test [2] was 38900 nM.
The like results for `CCCCCCC(C(=O)O)c1ccc(Cc2ccccc2C(=O)O)cc1` (stereo not drawn) [Example 94, 4-[(2-Carboxyphenyl)methyl]-α-hexyl-benzeneacetic acid] were, in that order, 58% and 1660 nM.
The like results for `CCCCCCC(C(=O)O)n1cnc(NC(=O)c2cccc(N)c2C(=O)O)c1` (stereo not drawn) [Example 96, α-Hexyl-4-[(3-amino-2-carboxybenzoyl)amino]-1H-imidazole-1-aceticacid] were, in that order, 59% and 372 nM.

For the origin of these results see US5073566A, “Angiotensin II antagonist 1,3-imidazoles and use thereas” (Eli Lilly and Company, priority 1989, dated 1991).
